Source: US20250331522A1, “CHLORINE DIOXIDE […] TO PREVENT BLACK ROT DISEASE AND PROMOTE WOUND HEALING IN SWEETPOTATO” (Zhejiang A&F University, priority 2024, published 2025)

Experiments:
[1] = system: sweetpotato wounds inoculated with C. fimbriata; assay: Promotion of wound-healing ability of sweetpotatoes (disease index after re-inoculation with C. fimbriata); assay type: in vivo, Xinxiang sweetpotatoes; Ceratocystis fimbriata; details: fumigation 30 h; spores applied on day 0, 1, 3, 5, 7 of healing; incidence counted after 7 days
Experimental: The effects of the combined reagents prepared by the method described in Embodiments 1-3 on promoting the wound-healing ability of sweetpotatoes are investigated, the method is as follows: […]
After the treatment, the fresh-keeping box is first ventilated, and the sweetpotatoes are transferred into a normal storage incubator (25° C., humidity 85%) for storage. During the storage of sweetpotatoes, 20 μL of fungus solution with a spore concentration of 10^6 spore/mL prepared in Embodiment 4 is evenly applied to the surface of the wounds on the 0th, 1st, 3rd, 5th and 7th day, respectively, the incidence of the disease after 7 days is counted and the disease index is calculated. […] The sweetpotatoes with perforation damage but without ClO2 treatment are used as the control group, and the disease index is calculated by the following formula: […]

[2] = system: C. fimbriata in sweetpotato; assay: Inhibitory effect on the growth of C. fimbriata in inoculated sweetpotato (lesion diameter and depth); assay type: in vivo, Ceratocystis fimbriata; Xinxiang sweetpotatoes; details: fumigation 30 h, storage 15 days at 25° C., humidity 85%
Experimental: (§1) C. fimbriata preserved at −80° C. is thawed and resuscitated at 4° C., 200 μL C. fimbriata is taken into 15 mL PDA medium plates in the ultra-clean table and cultured at 28° C. for 7 d. After 7 d, 5 colonies of C. fimbriata are picked on the medium and inoculated into the expanding culture medium with an inoculation needle for further culture for 7 d. After 7 days, some of the expanding culture plates are used to prepare fungus pieces, and some plates are used to prepare spore suspension. Sterile water is added into the culture plate, the mycelium is scraped and filtered through four layers of sterile gauze to remove the mycelium and medium impurities, and the spore suspension of C. fimbriata is obtained. The spore concentration is calculated by the blood cell counting plate, and adjusted to 10^6 spore/mL.
The inhibitory effect of the combined reagents prepared by the method described in Embodiments 1-3 on the growth of C. fimbriata in sweetpotato is investigated, the method is as follows: […]

C. fimbriata = assay: Inhibition of C. fimbriata in vitro (colony diameter on PDA plate after ClO2 fumigation); assay type: cell-based, Ceratocystis fimbriata; details: ClO2 fumigation 4 h, culture 15 d
Experimental: as §1, with “Sterile water is added into the culture plate, the mycelium is scraped and filtered through four layers of sterile gauze to remove the mycelium and medium impurities, and the spore suspension of C. fimbriata is obtained.” left out, “spore/mL. […]” for “spore/mL.”
The expanding culture plate of C. fimbriata cultured in Embodiment 4 is selected, and the fungus piece is prepared by using a 10 mm sterile puncher, the fungus piece is reversely connected to the center of the PDA medium, and the PDA plate is placed in a 10 L fresh-keeping box, and the combined reagents prepared by the method described in Embodiments 1-3 are added, the plate is fumigated with ClO2 for 4 h, the culture plate is moved into a constant temperature incubator at 27° C. for 15 d after the treatment. The colony diameter of the culture plate is measured by the cross method every 3 days, the measurement is repeated three times, and the plate without ClO2 fumigation is used as the blank control.

[O][Cl+][O-] [ClO2, chlorine dioxide]
resistance to infection / wound healing of sweetpotatoes (disease index, in words) [1]: after 5 days of healing can completely resist the infection of pathogenic fungus
diameters and depths of the lesion of inoculated sweetpotatoes (in words) [2]: decreases significantly with the increase of treatment concentration
growth of C. fimbriata (in words) (C. fimbriata): directly inhibit the growth of C. fimbriata
